Starred links: 1 amine or outer side, 2 acyl side, 3 side chain; linkers in the order of their positions; H or OH if unused. Positions of bridges follow the written chain, without caps; N, C: chain ends. Non-standard residues stand in square brackets, D forms with d. Residues, ends and D or L forms follow the SMILES beside them. Adda = CO[C@@H](Cc1ccccc1)[C@@H](C)/C=C(C)/C=C/[C@H](N[*:1])[C@H](C)C(=O)[*:2]; dAsp(3S-Me) = C[C@H](C(=O)[*:3])[C@@H](N[*:1])C(=O)[*:2]; d(γGlu) = O=C(O)[C@@H](CCC(=O)[*:2])N[*:1]; NMeDha = C=C(NC)C(=O)O

This is an account of results in ChEMBL document CHEMBL5226315, “Strategies for Targeting Serine/Threonine Protein Phosphatases with Small Molecules in Cancer” (J Med Chem, 2021).

The subject of one experiment is NCI-H358. As to the kind of experiment: Anticancer activity against human NCI-H358 cells. The experiment is classed as functional.
For experiment [1], the target named is T1, Serine/threonine-protein phosphatase 5 (Homo sapiens, UniProt P53041).
T1 sequence (P53041 whole entry): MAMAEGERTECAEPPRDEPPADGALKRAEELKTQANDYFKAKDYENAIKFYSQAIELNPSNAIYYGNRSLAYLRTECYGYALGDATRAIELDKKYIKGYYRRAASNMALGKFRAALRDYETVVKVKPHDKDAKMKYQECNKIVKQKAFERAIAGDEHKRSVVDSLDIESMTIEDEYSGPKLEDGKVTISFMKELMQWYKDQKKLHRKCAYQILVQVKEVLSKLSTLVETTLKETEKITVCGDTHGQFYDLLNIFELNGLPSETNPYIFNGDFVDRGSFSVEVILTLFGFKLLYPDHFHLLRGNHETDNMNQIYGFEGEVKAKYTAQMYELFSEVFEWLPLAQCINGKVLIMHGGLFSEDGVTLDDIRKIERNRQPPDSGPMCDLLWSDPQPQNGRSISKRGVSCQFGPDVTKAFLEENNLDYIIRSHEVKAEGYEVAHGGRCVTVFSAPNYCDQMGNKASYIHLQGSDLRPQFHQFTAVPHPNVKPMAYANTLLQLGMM
Briefly: Inhibition of PP5 (unknown origin).

Experiment [2] addresses T2, Serine/threonine-protein phosphatase 6 catalytic subunit (Homo sapiens, UniProt O00743).
T2 sequence (O00743 whole entry): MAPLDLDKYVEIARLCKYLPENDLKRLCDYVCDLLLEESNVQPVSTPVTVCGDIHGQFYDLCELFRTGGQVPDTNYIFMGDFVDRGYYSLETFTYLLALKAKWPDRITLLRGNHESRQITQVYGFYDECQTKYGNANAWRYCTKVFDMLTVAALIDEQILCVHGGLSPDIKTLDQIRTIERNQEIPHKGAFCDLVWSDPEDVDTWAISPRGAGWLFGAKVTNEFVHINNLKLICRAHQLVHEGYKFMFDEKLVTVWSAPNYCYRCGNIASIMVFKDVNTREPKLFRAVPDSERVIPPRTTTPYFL
Briefly: Inhibition of PP6 (unknown origin).

Experiment [3] is described as follows: Inhibition of rabbit skeletal muscle PP1 using [3H]-phosphohistone as substrate. More on the design: species or system Oryctolagus cuniculus.
A short description of experiment [4]: Inhibition of rabbit skeletal muscle PP2A using [3H]-phosphohistone as substrate. The arrangement: species or system Oryctolagus cuniculus.
Experiment [5] in a line: Inhibition of porcine testis PP4. The arrangement: species or system Sus scrofa.
Experiment [6] in a line: Inhibition of PP7 (unknown origin). More on the design: species or system Homo sapiens.
A short description of experiment [7]: Inhibition of PP3 (unknown origin) using [3H]-phosphohistone as substrate by liquid scintillation counting analysis. More on the design: species or system Homo sapiens.
The nature of experiment [8]: Inhibition of PP7 (unknown origin) using [3H]-phosphohistone as substrate by liquid scintillation counting analysis. More on the design: species or system Homo sapiens.
Experiment [9] can be described thus: Inhibition of PP1 (unknown origin) using [3H]-phosphohistone as substrate by liquid scintillation counting analysis. The arrangement: species or system Homo sapiens.
Experiment [10] is described as follows: Inhibition of PP2A (unknown origin) using [3H]-phosphohistone as substrate by liquid scintillation counting analysis. More on the design: species or system Homo sapiens.
The target in experiment [11] is T1, Serine/threonine-protein phosphatase 5. Briefly: Inhibition of PP5 (unknown origin) using [3H]-phosphohistone as substrate by liquid scintillation counting analysis.
Experiment [12] in a line: Inhibition of PP4 (unknown origin) using [3H]-phosphohistone as substrate by liquid scintillation counting analysis. The arrangement: species or system Homo sapiens.
A further experiment is filed under the species Homo sapiens. As to the kind of experiment: Activation of PP2A (unknown origin) at 1000 nM relative to control. The following applies: filed as activator.
Experiment [13] has as its target T3, Serine/threonine-protein phosphatase 5 (Homo sapiens) (UniProt P53041).
T3 sequence (whole entry): T1 sequence (P53041 whole entry)
As to the kind of experiment: Activation of PP5 (unknown origin) assessed as fold increase in activity at > 100000 nM relative to control. The note with it: filed as activator.

Experiment [14] concerns the target T3, Serine/threonine-protein phosphatase 5 (Homo sapiens). Briefly: Inhibition of human full length PP5 expressed in Escherichia coli Rosetta gami2(DE3)pLysS at >1 x 10^6nM relative to control. The following applies: dose > 1.0 10^6nM.
Experiment [15] can be described thus: Inhibition of PP1 (unknown origin). The arrangement: species or system Homo sapiens.
Experiment [16] concerns the target T4, Serine/threonine-protein phosphatase 2A catalytic subunit alpha isoform (Homo sapiens, UniProt P67775). As to the kind of experiment: Inhibition of human PP2AC using [3H]-phosphohistone as substrate.
Experiment [17] concerns the target T1, Serine/threonine-protein phosphatase 5. Briefly: Activation of recombinant human PP5 (16 to 499 residues) Escherichia coli BL21 (DE3) using pNPP incubated for 60 mins.
Experiment [18] has the same target. Briefly: Inhibition of human PP5 using [3H]-phosphohistone as substrate.
Experiment [19] deals with T2, Serine/threonine-protein phosphatase 6 catalytic subunit. Briefly: Inhibition of PP6 (unknown origin) using [3H]-phosphohistone as substrate by liquid scintillation counting analysis.
Experiment [20] in a line: Inhibition of porcine PP4 using [33P]-labelled substrate. More on the design: species or system Sus scrofa.
The target of experiment [21] is T4, Serine/threonine-protein phosphatase 2A catalytic subunit alpha isoform. Briefly: Inhibition of PP2A (unknown origin).
Experiment [22] in a line: Inhibition of PP3 (unknown origin). The arrangement: species or system Homo sapiens.
The nature of experiment [23]: Inhibition of PP3 activity in human Jurkat J77 cells assessed as dephosphorylation of substrate. The experiment is classed as cell-based.
The nature of experiment [24]: Inhibition of PP4 (unknown origin). The arrangement: species or system Homo sapiens.

T4 sequence (P67775 whole entry, the tested form may be a part, canonical isoform): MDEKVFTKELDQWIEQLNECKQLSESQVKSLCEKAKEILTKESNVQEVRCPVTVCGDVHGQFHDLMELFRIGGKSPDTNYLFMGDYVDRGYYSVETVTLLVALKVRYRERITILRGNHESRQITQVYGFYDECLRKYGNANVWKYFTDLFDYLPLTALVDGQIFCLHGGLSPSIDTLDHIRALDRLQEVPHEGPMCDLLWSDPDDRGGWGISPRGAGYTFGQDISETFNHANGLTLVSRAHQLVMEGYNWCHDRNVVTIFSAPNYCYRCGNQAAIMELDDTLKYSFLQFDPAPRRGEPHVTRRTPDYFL

On to `O=S(=O)(N[C@@H]1CCC[C@H](N2c3ccccc3Oc3ccccc32)[C@H]1O)c1ccc(OC(F)(F)F)cc1`, for which, in the experiment on NCI-H358, the GI50 was 5 10^3nM.
Consider `C=C1[C@@H](O)[C@@H]2O[C@]3(CC[C@H](/C=C/[C@H](C)[C@@H]4CC(C)=C[C@@]5(OC(C[C@@](C)(O)C(=O)O)CC[C@H]5O)O4)O3)CC[C@H]2O[C@@H]1[C@@H](O)C[C@H](C)[C@H]1O[C@@]2(CCCCO2)CC[C@H]1C` (some centres undefined), for which the IC50 (as a rule, the concentration that inhibits the measured activity by half) in experiment [1] is 3.5 nM; in [2] it was 1 nM; in experiment [3], 0.23 nM; in [4], 0.94 nM; in experiment [5], 0.1 nM; in experiment [6], above 1000 nM.
For `C/C=C1/C(=O)N[C@H](OC(=O)O)[C@H](C)C(=O)N[C@@H](CCCNC(=N)N)C(=O)N[C@@H](/C=C/C(C)=C/[C@H](C)[C@H](Cc2ccccc2)OC)[C@H](C)C(=O)N[C@H](OC(=O)O)CCC(=O)N1C`, the IC50 in experiment [7] was above 1000 nM; in [8], above 1000 nM; in experiment [9], 1.7 nM; in experiment [10] it was 0.04 nM.
As to `C=C/C(=C/C(=O)C[C@H](C)C[C@@H](C)CC[C@H](O)[C@H](C)C(=O)C[C@@H](O)[C@@H](C)[C@@H](C)OC(=O)C[C@@H](O)C1=C(C)C(=O)OC1=O)CC`, the IC50 in [7] was 17500 nM; in experiment [11] it was 11.9 nM; in experiment [9], 0.4 nM; in experiment [12], 44.4 nM.
In the case of `CCCCCCCCc1ccc(CCC(N)(CO)CO)cc1`, in the experiment filed under Homo sapiens, the Activity is 175%.
Turning to `COc1ccc(-c2nc(Cc3ccc(Cl)cc3)no2)cc1OC`, the fold change (FC) in [13] amounted to 4.
With `Nc1ccc(-c2nc3ccc(-c4nc5ccc(N)cc5[nH]4)cc3[nH]2)cc1`, in experiment [14], the inhibition (in general, the drop in the measured response relative to a control, in per cent) is 40%.
For `CN1CCN(C(=O)C2C(C(=O)O)C3CC[C@@H]2O3)CC1` (single isomer, unassigned), the IC50 in [15] is 2.4 nM; in experiment [16] it was 400 nM.
Turning to `CCCCC/C=C\C/C=C\C/C=C\C/C=C\CCCC(=O)O` [ARACHIDONIC ACID], in experiment [17], the EC50 (as a rule, the concentration that produces a half-maximal response) is 78000 nM.
Consider `COC[C@@H]([C@H](O)[C@H](O)C(=O)NCC[C@H](C)c1nc(/C=C/C[C@@H]2O[C@]3(C[C@@H](O)[C@@H]2C)O[C@H]([C@H](C[C@H](O)[C@H](C)[C@H](O)[C@H](C)/C=C(C)/C(C)=C/C=C/C(C)=C\C#N)OC)[C@H](OP(=O)(O)O)C3(C)C)co1)N(C)C` [CALYCULIN A], for which the IC50 in experiment [16] was 0.25 nM; in experiment [18] it was 3 nM; in [7] it was above 1000 nM; in experiment [10] it was 1.5 nM; in experiment [12] it was 0.2 nM; in experiment [19], 10 nM.
As to `C[C@@]12C(=O)OC(=O)[C@]1(C)[C@H]1CC[C@@H]2O1` [CANTHARIDIN], the IC50 is 50 nM in [20]; 1700 nM in experiment [15]; 160 nM in experiment [21]; above 500000 nM in [22]; 600 nM in [1]; 8000 nM in [2]. The compound also returned an IC50 in experiment [18] of 400 nM.
Turning to `O=C(O)CCCCCCCCCCCC[C@@H]1C=CCC1` [CHAULMOOGRIC ACID], in [17], the EC50 was 130000 nM.
For `C[C@@](O)(/C=C/[C@H]1CC=CC(=O)O1)[C@@H](C[C@@H](O)\C=C/C=C\C=C\CO)OP(=O)(O)O` [FOSTRIECIN], the IC50 is above 100000 nM in experiment [7], above 10000 nM in [11] and 3 nM in [12].
On to `C=C1C(=O)N[C@H](C)C(=O)N[C@@H](CC(C)C)C(=O)N[C@@H](C(=O)O)[C@H](C)C(=O)N[C@@H](CCCNC(=N)N)C(=O)N[C@@H](/C=C/C(C)=C/[C@H](C)[C@H](Cc2ccccc2)OC)[C@H](C)C(=O)N[C@@H](C(=O)O)CCC(=O)N1C` [MICROCYSTIN-LR] (R[Adda][d(γGlu)][NMeDha][dA]L[dAsp(3S-Me)]-OH; lactam N-7), for which the IC50 worked out at 200 nM in [22]; 1 nM in [1]; 10 nM in experiment [3]; 0.1 nM in experiment [4]; 0.15 nM in [5].
With `C=CC[C@@H]1/C=C(\C)C[C@H](C)C[C@H](OC)[C@H]2O[C@@](O)(C(=O)C(=O)N3CCCC[C@H]3C(=O)O[C@H](/C(C)=C/[C@@H]3CC[C@@H](O)[C@H](OC)C3)[C@H](C)[C@@H](O)CC1=O)[C@H](C)C[C@@H]2OC` [TACROLIMUS ANHYDROUS], the IC50 in experiment [23] turned out to be 0.4 nM.
On to `CO[C@H]([C@H](O)CC(=O)[C@@H](C)[C@@H](O)CC[C@@H](C)[C@@H]1O[C@]2(CC[C@@H](C)[C@H](CC[C@H](C)C(C)=O)O2)CC[C@@H]1C)[C@H](OC(=O)C[C@@H](O)C1=C(C)C(=O)OC1=O)C(C)C` [TAUTOMYCIN], for which the IC50 in experiment [22] is above 1000 nM; in experiment [1], 10 nM; in experiment [10], 5.3 nM; in experiment [3], 0.038 nM; in [24], 0.4 nM.
